From patent EP0010299A1, “Pharmaceutical composition useful for the treatment of hypercholesteremia” (Merck & Co., Inc., priority 1978, dated 1980)
Values joined by “and” are separate entries in the source; they are usually repeats but may differ in a detail not shown here. Identical values can stand only once.

Key:
serum cholesterol = conditions: acutely treated rat; Endo et al. 1976; cited from earlier work
plasma cholesterol = test: Combination of compound (II) with cholestyramine in dogs, plasma cholesterol; type: in vivo, Male beagles
Method: Male beagles, ranging in weight from 7 to 14 kg. (average 11 kg.), were fed a semi-synthetic diet six weeks prior to the start of the experiment and serum cholesterol levels determined colorimetrically each week in order to obtain base-line values for each dog. At the start of the treatment, animals were divided into three treatment groups. Group A (4 dogs) received 25 mg./kg./day of compound (II) mixed in the diet. Group B (4 dogs) received 12 g./dog/day of cholestyramine mixed' in the diet. Group C (5 dogs) was the untreated control. Treatment was for four weeks, and plasma cholesterol was determined two times per week. After four weeks a combination of compound (II) and cholestyramine was given to dogs in Groups A and B mixed in the diet at 25 mg./kg. and 12 g./dog/day respectively for an additional four weeks. Cholesterol levels were detorminod two times per week during this period.

HMG-CoA reductase [1] = target: T1, HMG-CoA reductase (Rattus norvegicus, UniProt P51639); conditions: reductase enzyme; no unit printed (molar concentration); read-out: ED50 in the inhibition test; cited from earlier work
T1 sequence (P51639 1-887): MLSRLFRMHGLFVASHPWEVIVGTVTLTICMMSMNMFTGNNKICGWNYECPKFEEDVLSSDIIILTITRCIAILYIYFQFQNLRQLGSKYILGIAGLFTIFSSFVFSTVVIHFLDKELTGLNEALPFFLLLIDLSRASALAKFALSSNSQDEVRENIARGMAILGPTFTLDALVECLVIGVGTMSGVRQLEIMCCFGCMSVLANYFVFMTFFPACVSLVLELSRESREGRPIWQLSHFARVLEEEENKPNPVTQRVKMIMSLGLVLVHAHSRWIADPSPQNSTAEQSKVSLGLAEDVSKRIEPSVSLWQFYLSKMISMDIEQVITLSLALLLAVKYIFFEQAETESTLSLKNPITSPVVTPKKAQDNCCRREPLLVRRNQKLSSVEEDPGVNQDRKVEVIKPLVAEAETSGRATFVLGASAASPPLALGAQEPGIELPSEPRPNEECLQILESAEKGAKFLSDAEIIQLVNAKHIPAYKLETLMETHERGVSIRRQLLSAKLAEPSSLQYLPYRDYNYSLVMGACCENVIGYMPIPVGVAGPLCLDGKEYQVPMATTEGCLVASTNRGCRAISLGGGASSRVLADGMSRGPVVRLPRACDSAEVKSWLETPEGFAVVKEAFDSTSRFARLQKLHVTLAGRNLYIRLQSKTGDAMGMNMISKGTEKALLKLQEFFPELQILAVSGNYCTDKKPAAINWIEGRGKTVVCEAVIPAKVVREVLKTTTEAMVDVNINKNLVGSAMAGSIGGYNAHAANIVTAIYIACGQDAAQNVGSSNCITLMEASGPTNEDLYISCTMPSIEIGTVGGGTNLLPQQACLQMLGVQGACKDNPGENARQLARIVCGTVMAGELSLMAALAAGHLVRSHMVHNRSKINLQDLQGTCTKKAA

serum sterol levels = conditions: Bensch et al. 1978, cited from earlier work
HMG-CoA reductase [2] = conditions: fed rats three hours following the administration; Bensch et al. 1978; cited from earlier work
[3] = Group A average (4 dogs), compound (II) 25 mg./kg./day mixed in the diet, 4 weeks
[4] = Group A, individual dogs, compound (II) 25 mg./kg./day mixed in the diet, 4 weeks

For `CCC(C)C(=O)OC1CCC=C2C=CC(C)C(CCC3CC(O)CC(=O)O3)C21` (centres unmarked) [compound (II), 1,2,3,7,8,8a-hexahydro-7-methyl-8-[2-(3,4,5,6-tetra-hydro-4-hydroxy-6-oxo-2H-pyran-2-yl]ethyl)-1-naphthyl 2-methyl butanoate], which serum cholesterol levels (serum cholesterol) is on record?
Its serum cholesterol levels is “reduced”.

And the “reduction in plasma cholesterol level plateauing by four weeks” value (plasma cholesterol; Fig. 1, Group A, 25 mg./kg./day of compound (II))?
The value was 36 % of control.

What about the “PLASMA CHOLESTEROL, 4 Weeks, % change from Start, average” value (plasma cholesterol; [3]) of the same compound?
The value was -35.6%.

And the “PLASMA CHOLESTEROL, 4 Weeks, average” value (plasma cholesterol; [3])?
The value was 82.5 mg/dL.

What about the “PLASMA CHOLESTEROL, 4 Weeks” value (plasma cholesterol; [4]) of the same compound?
Its value is 76 mg./dl and 70 mg./dl and 92 mg./dl (2×).

And the “PLASMA CHOLESTEROL, 4 Weeks, % change from Start” value (plasma cholesterol; [4])?
Its value is -36.7% and -30.7% and -40.4% and -34.3%.

What about the “decrease of plasma cholesterol, average” value (plasma cholesterol; four weeks single agent in the diet: compound (II) 25 mg./kg. (Group A), cholestyramine 12 g./dog/day (Group B)) of the same compound?
Its value is 35.6%.

And the IC50 (HMG-CoA reductase [1])?
The IC50 was ~10 nM.

What about the “liver or liver microsomal cholesterol concentration” value (serum sterol levels) of the same compound?
Its value is “no change”.

What about the “effect on serum sterol levels” value (serum sterol levels; compared with fed or fasted controls) of the same compound?
The value was “no effect”.

What about the HMG-CoA reductase (HMG-CoA reductase [2]) of the same compound?
Its HMG-CoA reductase is “marked increase”.
